Values quoted from earlier work as cited in patent publication US10772886B2, “CXCR-2 inhibitors for treating crystal arthropathy disorders” (ARDEA BIOSCIENCES, INC., priority 2016, dated 2020).

Settings: dog; cited from earlier work

C[C@@H](Oc1cc(NS(=O)(=O)N2CCC2)nc(SCc2cccc(F)c2F)n1)[C@@H](O)CO [Compound 3, N-(2-((2,3-difluorobenzyl)thio)-6-(((2R,3S)-3,4-dihydroxybutan-2-yl)oxy)pyrimidin-4-yl)azetidine-1-sulfonamide]
half-life: long
